Where two headings read alike, the source gives them in different places.
Assays:
EGFR (D770_N771insNPG) = EGFR (D770_N771insNPG) (Homo sapiens (Human), UniProt P00533, INS770NPG); assay: Potency of EGFR (D770_N771insNPG) enzymatic activity inhibition (ADP-Glo luminescence); assay type: biochemical; settings: recombinant EGFR (D770_N771insNPG) 1.5 nM, Poly(Glu, Tyr) substrate, ATP, 1 h at rt
Protocol: Example B. Primary Assay Used to Determine Potency of EGFR (D770_N771insNPG) Enzymatic Activity Inhibition
Compounds activity was determined using recombinant EGFR (D770 N771insNPG) protein (SignalChem, #E10-132GG-10) and Poly(Glu, Tyr) substrate (Sigma-Aldrich, #P0275) in an in vitro enzymatic reaction. The enzymatic assay used to determine activity was a Luminescence assay using a Microplate Reader ClarioStar Plus. The enzymatic reaction was carried out in assay buffer (40 mM TRIS-HCl pH 7.4-7.6, 20 mM MgCl2, 2.5 mM MnCl2, 0.05 mM DTT, 0.1 mg/ml BSA). The compounds were dispensed on a 384 well Diamond Well Plate (Axigen, Cat #P-384-120SQ-C—S) using the Biomek FX liquid handling system at 80× solutions of compounds in DMSO. 2× Protein-Substrate mix (final concentration 1.5 nM of EGFR (D770_N771insNPG) and 50 ng/μl of Poly(Glu, Tyr)) was prepared in 1× Assay buffer and 4 µl of mixture per well was added into 384w white Reaction plate with NBS (Coming, Cat #4513). 4 μl of Poly(Glu, Tyr) substrate w/o EGFR in 1× buffer was used for negative control. Plates were centrifuged for 1 min at 200 g. Next step the Compounds were added to Reaction plate using Biomek station via following steps: 1 μl of 80× compounds (in DMSO) were mixed thoroughly with 39 μl of 2× 10 μM ATP in Assay Buffer, then 4 μl of this mixture was added to Reaction plate with 4 μl of Protein-Substrate mix. Plates were centrifuged for 1 min at 200 g and incubated for 1 h at rt. Next 4 μL of ADP-Glo reagent (Promega, ADP-Glo™ Kinase Assay, Cat #V9102) per well was added. Plates were incubated for 30 min at rt. Then 8 μL of Kinase detection reagent (Promega, ADP-Glo™ Kinase Assay, Cat #V9102) per well was added and the Luminescence was measured using Microplate Reader. The % inhibition was then used to calculate the EC50 values. The values of EC50 shown as a letters A-E, where: A<0.001 μM; 0.001 μM<B<0.005 μM; 0.005 μM<C<0.01 μM; 0.01<D<0.05 μM; E>0.05.

Ba/F3 (EGFRwt) = assay: Cellular growth inhibition assay (CellTiter-Glo), Ba/F3 (EGFRwt); assay type: cell-based; settings: Mus musculus, BaF3, 72 h; Ba/F3 (Wild type) with 10 ng/ml rhEGF, 3 days of incubation
Protocol: Example E. Cellular Growth Inhibition Assay
Ba/F3(Empty vector) (Signosis), Ba/F3(Wild type) (Signosis), Ba/F3(L^858R+T790M) (Signosis), Ba/F3(A767_dupASV) (Signosis), Ba/F3(D770_N771insSVD) (Signosis), Ba/F3(H773_V774insNPH) (Signosis) were seeded at a density of 4000 cells per well in a CellBIND® 384-well Flat Clear Bottom Black Polystyrene Microplates (Coming, USA, Cat #3770) in 45 μl total volume of RPMI (PanEco, Cat #C330, Russia) with […] (HyClone, Cat #SV30160.03) and with 10 ng/ml rmIL-3 (RD systems, USA, Cat #403-ML-025) (for BaBF3(Empty vector)) and with 10 ng/ml rhEGF (ThermoFisher, USA, Cat #PHG0311L) (for BaCF3(Wild type)). 500× compounds solutions in DMSO (Sigma Cat #D2650) were prepared into Cmpnds plate (DiamondWell Plate, Axigen, Cat #P-384-120SQ-C—S) and DMSO only control was included. 1.l of 500× compounds (Cmpnds plate) was added to 49 µl of culture medium into Dilution plate (Diamond Well Plate, Axigen, Cat #P-384-120SQ-C—S), mixed and then 5 μl of 10× compounds solutions were transferred to cells followed by centrifugation at 100 g for 1 min. Final DMSO concentration was 0.2% o. After 3 days of incubation 10.l of CellTiter-Glo (Promega, CAT #G7572) were added to the cells, plate was centrifuged at 100 g for 1 min and luminescence signal was measured using Microplate Reader (CLARIOStar).

Ba/F3 (A767_dupASV) = assay: Cellular growth inhibition assay (CellTiter-Glo), Ba/F3 (A767_dupASV); assay type: cell-based; settings: Mus musculus, BaF3, 72 h; 3 days of incubation; read-out: Ba/F3 (A767_dup ASV) CC50
Procedure, shortened: (§1)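 Ba/F3 cells expressing the EGFR variants were seeded at 4000 cells/well in RPMI with FBS, with 10 ng/ml rhEGF added for the wild-type line, and treated with compound at 0.2% final DMSO. Viability was read by CellTiter-Glo luminescence after 3 days.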

Ba/F3 (D770_N771insSVD) = assay: Cellular growth inhibition assay (CellTiter-Glo), Ba/F3 (D770_N771insSVD); assay type: cell-based; settings: Mus musculus, BaF3, 72 h; 3 days of incubation; read-out: Ba/F3 (D770_N771 insSVD) CC50
Procedure, shortened: as §1

EGFR (WT) = EGFR (WT) (Homo sapiens (Human), UniProt P00533); assay: Potency of EGFR enzymatic activity inhibition (WT) (ADP-Glo luminescence); assay type: biochemical; settings: recombinant EGFR (WT) 4 nM, Poly(Glu, Tyr) substrate, ATP, 1 h at rt
EGFR (WT), sequence (P00533 25-1210): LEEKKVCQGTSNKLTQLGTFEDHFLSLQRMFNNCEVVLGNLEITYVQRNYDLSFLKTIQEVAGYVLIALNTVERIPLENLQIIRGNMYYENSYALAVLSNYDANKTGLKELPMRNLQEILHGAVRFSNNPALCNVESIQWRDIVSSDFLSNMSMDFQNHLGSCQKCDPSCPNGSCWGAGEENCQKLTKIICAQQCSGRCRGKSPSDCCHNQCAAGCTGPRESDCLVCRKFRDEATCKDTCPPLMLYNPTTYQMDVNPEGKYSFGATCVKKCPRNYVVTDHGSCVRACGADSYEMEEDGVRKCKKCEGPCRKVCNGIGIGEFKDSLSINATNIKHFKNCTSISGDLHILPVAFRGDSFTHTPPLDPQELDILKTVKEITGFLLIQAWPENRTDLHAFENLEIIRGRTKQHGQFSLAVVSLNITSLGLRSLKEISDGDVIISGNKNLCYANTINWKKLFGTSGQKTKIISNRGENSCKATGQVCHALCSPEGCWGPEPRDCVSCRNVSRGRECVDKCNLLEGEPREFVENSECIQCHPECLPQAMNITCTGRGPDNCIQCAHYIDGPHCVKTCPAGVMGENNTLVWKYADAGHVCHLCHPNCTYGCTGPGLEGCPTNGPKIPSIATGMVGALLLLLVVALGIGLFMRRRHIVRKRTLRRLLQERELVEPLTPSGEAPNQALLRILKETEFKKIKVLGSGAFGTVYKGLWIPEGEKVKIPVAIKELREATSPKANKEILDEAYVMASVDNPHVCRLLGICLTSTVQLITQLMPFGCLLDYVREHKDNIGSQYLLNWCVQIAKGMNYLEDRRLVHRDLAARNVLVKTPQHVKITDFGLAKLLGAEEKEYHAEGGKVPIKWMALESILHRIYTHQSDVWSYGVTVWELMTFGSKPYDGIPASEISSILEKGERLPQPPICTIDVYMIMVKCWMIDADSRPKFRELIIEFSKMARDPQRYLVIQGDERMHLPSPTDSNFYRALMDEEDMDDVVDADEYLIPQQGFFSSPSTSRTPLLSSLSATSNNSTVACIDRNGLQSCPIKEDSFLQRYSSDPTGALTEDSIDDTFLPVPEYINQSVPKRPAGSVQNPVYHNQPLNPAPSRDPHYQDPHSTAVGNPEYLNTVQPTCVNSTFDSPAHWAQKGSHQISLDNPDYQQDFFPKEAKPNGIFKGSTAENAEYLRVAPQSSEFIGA
Protocol: Example D. Primary Assay Used to Determine Potency of EGFR enzymatic activity Inhibition (WT)
Compound activity was determined using recombinant EGFR protein (SignalChem, #E10-112G-10) and Poly(Glu, Tyr) substrate (Sigma-Aldrich, #P0275) in an in vitro enzymatic reaction. The enzymatic assay used to determine activity was a Luminescence assay using a Microplate Reader ClarioStar Plus. The enzymatic reaction was carried out in assay buffer (40 mM TRIS-HCl pH 7.4-7.6, 20 mM MgCl2, 2.5 mM MnCl2, 0.05 mM DTT, 0.1 mg/ml BSA). The compounds were dispensed on a 384 well Diamond Well Plate (Axigen, Cat #P-384-120SQ-C—S) using the Biomek FX liquid handling system at 80× solutions of compounds in DMSO. 2× Protein-Substrate mix (final concentration 4 nM of EGFR and 50 ng/μl of Poly(Glu, Tyr)) was prepared in 1× Assay buffer and 4 μl of mixture per well was added into 384w white Reaction plate with NBS (Coming, Cat #4513). 4 μl of Poly(Glu, Tyr) substrate w/o EGFR in 1× buffer was used for negative control. Plates were centrifuged for 1 min at 200 g. Next step the Compounds were added to Reaction plate using Biomek station via following steps: 1 μl of 80× compounds (in DMSO) were mixed thoroughly with 39 μl of 2× 10 μM ATP in Assay Buffer, then 4 μl of this mixture was added to Reaction plate with 4 μl of Protein-Substrate mix. Plates were centrifuged for 1 min at 200 g and incubated for 1 h at rt. Next 4 μL of ADP-Glo reagent (Promega, ADP-Glo™ Kinase Assay, Cat #V9102) per well was added. Plates were incubated for 30 min at rt. Then 8 μL of Kinase detection reagent (Promega, ADP-Glo™ Kinase Assay, Cat #V9102) per well was added and the Luminescence was measured using Microplate Reader. The % inhibition was then used to calculate the EC50 values. The results for certain compounds are presented in the Table D. The values of EC50 shown as a letters A-E, where: A<0.001 μM; 0.001 μM<B<0.005 μM; 0.005 μM<C<

Ba/F3 (L858R + T790M) = assay: Cellular growth inhibition assay (CellTiter-Glo), Ba/F3 (L858R+T790M); assay type: cell-based; settings: Mus musculus, BaF3, 72 h; 3 days of incubation
Procedure, shortened: as §1

[1] = Cellular growth inhibition assay (CellTiter-Glo), Ba/F3 (Empty vector); assay type: cell-based; settings: mouse, Ba/F3 cells with empty vector; Ba/F3 (Empty vector) with 10 ng/ml rmIL-3, 3 days of incubation
Procedure, shortened: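 Ba/F3 cells carrying an empty vector were plated in 384-well black clear-bottom plates at 4000 cells per well in 45 μl RPMI containing FBS and 10 ng/ml rmIL-3. Compounds diluted from DMSO stocks were added as 5 μl of 10× solution, giving 0.2% DMSO. After 3 days, CellTiter-Glo was added and luminescence measured.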

Ba/F3 (H773_V774insSVD) = assay: Cellular growth inhibition assay (CellTiter-Glo), Ba/F3 (H773_V774insSVD); assay type: cell-based; settings: Mus musculus, BaF3, 72 h; 3 days of incubation; read-out: Ba/F3 (H773_V774 insSVD) CC50
[2] = DCM
[3] = rcm bond, 14-membered ring, Grubbs II (12 mol%), 10.0 mM, 50.0 °C

EGFR (D770_N771insNPG), sequence (P00533 other isoform, or with tags, fused parts or gaps del 1-694/ins NPG behind 770 limits assumed): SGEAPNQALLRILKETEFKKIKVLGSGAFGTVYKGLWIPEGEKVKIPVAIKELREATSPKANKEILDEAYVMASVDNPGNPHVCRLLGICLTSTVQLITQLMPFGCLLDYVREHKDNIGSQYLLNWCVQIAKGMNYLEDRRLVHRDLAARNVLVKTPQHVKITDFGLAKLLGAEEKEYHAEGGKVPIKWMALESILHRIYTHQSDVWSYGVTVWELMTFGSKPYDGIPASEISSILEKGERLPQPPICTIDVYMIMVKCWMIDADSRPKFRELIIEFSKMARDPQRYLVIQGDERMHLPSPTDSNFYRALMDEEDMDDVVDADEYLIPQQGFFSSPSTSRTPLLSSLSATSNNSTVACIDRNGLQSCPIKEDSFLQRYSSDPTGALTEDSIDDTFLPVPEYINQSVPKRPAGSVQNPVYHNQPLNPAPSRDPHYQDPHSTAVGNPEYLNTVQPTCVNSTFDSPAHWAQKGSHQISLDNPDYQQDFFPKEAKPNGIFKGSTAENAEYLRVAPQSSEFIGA

| EC50 (EGFR (D770_N771insNPG)) [nM] | EC50 (EGFR (WT)) [nM] | Compound | CC50 (Ba/F3 (EGFRwt)) [nM] | CC50 (Ba/F3 (A767_dupASV)) [nM] | CC50 (Ba/F3 (D770_N771insSVD)) [nM] | CC50 (Ba/F3 (L858R + T790M)) [nM] | CC50 at 3 days [1] [nM] | CC50 (Ba/F3 (H773_V774insSVD)) [nM] | further results |
| --- | --- | --- | --- | --- | --- | --- | --- | --- | --- |
| – | – | 29-(3-Fluoro-2-methoxyanilino)-18,21-dioxa-1,6,10,15,24-pentaazapentacyclo[22.2.2.1^8,110^4,9.0^12,17]nonacosa-8,11(29),12(17),13,15-pentaene-2,7-dione | – | – | – | – | – | – | ring closure, yield after HPLC (amide bond, 18-membered ring, EDCI, DMF, 43.0 mM, 25.0 °C): 16% |
| 1 to 5 | 1 to 5 | COc1c(F)cccc1Nc1c2[nH]c3c1C(=O)NC[C@H]3CCCCOCCOc1cnccc1-2 [Compound 114, (16R)-23-[(3-Fluoro-2-methoxyphenyl)amino]-8,11-dioxa-5,18,22-triazatetracyclo[18.2.1.0^2,7.0^16,21]tricosa-1(23),2,4,6,20-pentaen-19-one] | 100 to 1000 | 0.1 to 1 | 10 to 100 | 100 to 1000 | > 10000 | 100 to 1000 | – |
| – | – | 19-[(3-Fluoro-2-methoxyphenyl)amino]-7,8,10,11,12,12a,13,14-octahydro-6H-7,9-methano-16,18-methenodipyrido[3,4-b:4′,3′-f][1,5,11]oxadiazacyclotetradecin-15(17H)-one | – | – | – | – | – | – | ring closure, isolated yield ([2]; amine bond, 14-membered ring, STAB/DIEA, 190.0 mM, 25.0 °C): 36% |
| – | – | (13Z)-23-[(3-fluoro-2-methoxyphenyl)amino]-8,11-dioxa-5,18,22-triazatetracyclo[18.2.10^2,7.0^16,21]tricosa-1(23),2,4,6,13,20-hexaen-19-one | – | – | – | – | – | – | ring closure, isolated yield [2, 3]: 4% |
| – | – | (13E)-23-[(3-Fluoro-2-methoxyphenyl)amino]-8,11-dioxa-5,18,22-tniazatetracyclo[18.2.1.0^2,7.0^16′2]tricosa-1(23),2,4,6,13,20-hexaen-19-one | – | – | – | – | – | – | ring closure, isolated yield [2, 3]: 16% |
| – | – | COc1c(F)cccc1Nc1c2[nH]c3c1C(=O)NCC3CC=CCCOc1cnccc1-2 (stereo not shown) | – | – | – | – | – | – | ring closure, isolated yield ([2]; from C=CCCOc1cnccc1-c1[nH]c2c(c1Nc1cccc(F)c1OC)C(=O)NCC2CC=C, rcm bond, 12-membered ring, Grubbs II (15 mol%), 10.0 mM, 50.0 °C): 71% |
| 1 to 5 | ≤ 1 | COc1c(F)cccc1Nc1c2[nH]c3c1C(=O)NCC3CCCCOCCOc1cnccc1-2 (stereo not shown) [Compound 100, 23-[(3-Fluoro-2-methoxyphenyl)amino]-8,11-dioxa-5,18,22-triazatetracyclo[18.2.1.0^2,7.0^16,21]tricosa-1(23),2,4,6,20-pentaen-19-one] | 10 to 100 | 1 to 10 | 10 to 100 | 100 to 1000 | > 10000 | 10 to 100 | – |
| 1 to 5 | 1 to 5 | COc1c(F)cccc1Nc1c2[nH]c3c1C(=O)NC[C@@H]3CCCCOCCOc1cnccc1-2 [Compound 115] | 100 to 1000 | 0.1 to 1 | 10 to 100 | 100 to 1000 | > 10000 | 10 to 100 | – |
| – | – | (19E)-28-[(3-Fluoro-2-methoxyphenyl)amino]-3,22-dioxa-6,11,15-triazapentacyclo[21.3.1^10,13.0^4,9.0^12,17]octacosa-1(27),4,6,8,10(28),12,19,23,25-nonaen-14-one | – | – | – | – | – | – | ring closure, yield after HPLC (rcm bond, 16-membered ring, Hoveyda-Grubbs II (10 mol%), DCM, 3.6 mM): 20% |

| Compound | EC50 (EGFR (D770_N771insNPG)) [nM] | EC50 (EGFR (WT)) [nM] | CC50 (Ba/F3 (EGFRwt)) [nM] | CC50 (Ba/F3 (A767_dupASV)) [nM] | CC50 (Ba/F3 (D770_N771insSVD)) [nM] | CC50 (Ba/F3 (L858R + T790M)) [nM] | CC50 at 3 days [1] [nM] | CC50 (Ba/F3 (H773_V774insSVD)) [nM] | further results |
| --- | --- | --- | --- | --- | --- | --- | --- | --- | --- |
| COc1c(F)cccc1Nc1c2[nH]c3c1C(=O)NCC3C/C=C\COCCOc1cnccc1-2 (stereo not shown) [Compound 104, (13Z)-23-[(3-fluoro-2-methoxyphenyl)amino]-8,11-dioxa-5,18,22-triazatetracyclo[18.2.10^2,7.0^16,21]tricosa-1(23),2,4,6,13,20-hexaen-19-one] | ≤ 1 | 1 to 5 | 100 to 1000 | 0.1 to 1 | 10 to 100 | 100 to 1000 | > 10000 | 100 to 1000 | – |
| COc1c(F)cccc1Nc1c2[nH]c3c1C(=O)NCC3C/C=C/COCCOc1cnccc1-2 (stereo not shown) [Compound 99, (13E)-23-[(3-Fluoro-2-methoxyphenyl)amino]-8,11-dioxa-5,18,22-tniazatetracyclo[18.2.1.0^2,7.0^16′2]tricosa-1(23),2,4,6,13,20-hexaen-19-one] | 1 to 5 | 1 to 5 | 10 to 100 | 1 to 10 | 10 to 100 | 100 to 1000 | > 10000 | 100 to 1000 | – |
